Assay results reported in US8269043B2, “Bicyclic aryl sphingosine 1-phosphate analogs” (Biogen Idec MA Inc., priority 2008, dated 2012).

The molecules below were run on circulating lymphocytes (assay: Lymphopenia assay: circulating lymphocytes after oral gavage). Conditions: C57bl/6 male mice, oral gavage 0.5 and 5 mg/kg in 30% HPCD, blood 5 and 24 hours after administration.
Type: in vivo
Experimental: Measurement of circulating lymphocytes: Compounds were dissolved in 30% HPCD. Mice (C57bl/6 male, 6-10 week-old) were administered 0.5 and 5 mg/kg of a compound via oral gavage. 30% HPCD was included as a negative control.
Blood was collected from the retro-orbital sinus 5 and 24 hours after drug administration under short isoflurane anesthesia. Whole blood samples were subjected to hematology analysis. Peripheral lymphocyte counts were determined using an automated analyzer (HEMAVET™ 3700). Three mice were used to assess the lymphocyte depletion activity of each compound screened.
Compounds of formula (I) induced full lymphopenia at times as short as 3 hours or less to as long as 48 hours or more; for example, 4 to 36 hours, or 5 to 24 hours. In some cases, a compound of formula induced full lymphopenia at 5 hours and partial lymphopenia at 24 hours. The dosage required to induce lymphopenia can be in the range of, e.g., 0.001 mg/kg to 100 mg/kg; or 0.01 mg/kg to 10 mg/kg. The dosage can be 10 mg/kg or less, such as 5 mg/kg or less, 1 mg/kg or less, or 0.1 mg/kg or less

Molecule | Lymphopenia (ED50 mg/kg)
NC(CO)(CO)c1ccc2c(C(F)(F)F)c(O[C@H]3C[C@H](COCc4ccccc4)C3)ccc2c1 [Example 73] | <0.5 mg/kg
CC(C)(C)[C@H]1CC[C@H](Oc2ccc3cc([C@@](C)(N)CO)ccc3c2)CC1 [Example 25, (R)-2-amino-2-(6-(trans-4-tert-butylcyclohexyloxy)naphthalen-2-yl)propan-1-ol] | >5 mg/kg
(R)-2-Amino-2-[6-(cis-4-pentyl-cyclohexyloxy)-naphthalen-2-yl]-propan-1-ol and (R)-2-Amino-2-[6-(trans-4-pentyl-cyclohexyloxy)-naphthalen-2-yl]-propan-1-ol [Example 272] | <0.5 mg/kg
(R)-2-amino-2-(6-(3-(benzyloxy)phenylthio)naphthalen-2-yl)propan-1-ol [Example 155] | <0.5 mg/kg
C[C@](N)(CO)c1ccc2c(C(F)(F)F)c(O[C@H]3C[C@H](COCc4ccccc4)C3)ccc2c1 (relative stereo) [Example 82] | <0.5 mg/kg
CCC(C)(C)[C@H]1CC[C@@H](Oc2ccc3cc([C@@](C)(N)CO)ccc3c2)CC1 (relative stereo) [Example 79, (R)-2-Amino-2-[6-(4-cis-tert-pentylcyclohexyloxy)naphthalen-2-yl]propan-1-ol] | >5 mg/kg
Cl.NC(CO)(CO)c1ccc2cc(O[C@H]3C[C@H](COCc4ccccc4)C3)ccc2c1 [Example 65] | <0.5 mg/kg
NC(CO)(CO)c1ccc2c(C(F)(F)F)c(O[C@H]3C[C@@H](COCc4ccccc4)C3)ccc2c1 [Example 74] | <0.5 mg/kg
C[C@](N)(CO)c1ccc2cc(O[C@H]3C[C@H](COCc4ccccc4)C3)ccc2c1 (relative stereo) [Example 76] | 0.5 to 5 mg/kg
(R)-2-amino-2-(6-((1R,2R,4S)-bicyclo[2.2.1]heptan-2-yloxy)naphthalen-2-yl)propan-1-ol [Example 105] | >5 mg/kg

Same assay, conditions: Mus musculus, Lymphocyte, po, C57bl/6 male mice, oral gavage 0.5 and 5 mg/kg in 30% HPCD, blood 5 and 24 hours after administration

Molecule | ED50
C[C@](N)(CO)c1ccc2cc(Oc3ccc(Cl)cc3)ccc2c1 [Example 173, (R)-2-Amino-2-(6-(4-chlorophenoxy)naphthalen-2-yl)propan-1-ol] | 0.5 to 5 mg/kg
CCCCCOc1cccc(Oc2ccc3cc(C(N)(CO)CO)ccc3c2)c1 [Example 196, 2-Amino-2-(6-(3-(pentyloxy)phenoxy)naphthalen-2-yl)propane-1,3-diol] | < 0.5 mg/kg
C[C@](N)(CO)c1ccc2cc(Oc3cccc(Cl)c3)ccc2c1 [Example 172, (R)-2-Amino-2-(6-(3-chlorophenoxy)naphthalen-2-yl)propan-1-ol] | 0.5 to 5 mg/kg
C[C@](N)(CO)c1ccc2cc(O[C@H]3CC[C@H](C(F)(F)F)CC3)ccc2c1 [Example 260, (R)-2-Amino-2-[6-(trans-4-trifluoromethyl-cyclohexyloxy)-naphthalen-2-yl]-propan-1-ol] | 0.5 to 5 mg/kg
CCCCCOc1ccc(Oc2ccc3cc(C(N)(CO)CO)ccc3c2)cc1 [Example 251, 2-amino-2-(6-(4-(pentyloxy)phenoxy)naphthalen-2-yl)propane-1,3-diol] | < 0.5 mg/kg
NC(CO)(CO)c1ccc2cc(Oc3cccc(C(F)(F)F)c3)ccc2c1 [Example 191, 2-Amino-2-(6-(3-(trifluoromethyl)phenoxy)naphthalen-2-yl)propane-1,3-diol] | > 5 mg/kg
CC(F)(F)[C@H]1CC[C@@H](Oc2ccc3cc([C@@](C)(N)CO)ccc3c2)CC1 [Example 319, (R)-2-amino-2-(6-(cis-4-(1,1-difluoroethyl)cyclohexyloxy)naphthalen-2-yl)propan-1-ol] | > 5 mg/kg
CCC(C)C1CCC(Oc2ccc3cc([C@@](C)(N)CO)ccc3c2)CC1 (stereo partly drawn) [Example 97, (R)-2-Amino-2-[6-(4-sec-butyl-cyclohexyloxy)-naphthalen-2-yl]-propan-1-ol] | 0.5 to 5 mg/kg
C[C@](N)(CO)c1ccc2cc(OC3CCC(C4CCCCC4)CC3)ccc2c1 (stereo partly drawn) [Example 89, (R)-2-Amino-2-[6-(bicyclohexyl-4-yloxy)-naphthalen-2-yl]-propan-1-ol] | 0.5 to 5 mg/kg
C[C@@]1(c2ccc3c(C(F)(F)F)c(O)ccc3c2)COC(=O)N1 [Example 130, (R)-4-(6-hydroxy-5-(trifluoromethyl)naphthalen-2-yl)-4-methyloxazolidin-2-one] | > 5 mg/kg
C[C@](N)(CO)c1ccc2c(C(F)(F)F)c(O[C@H]3CC[C@@H](C4CCCCC4)CC3)ccc2c1 [Example 160, (R)-2-Amino-2-(6-(cis-4-cyclohexylcyclohexyloxy)-5-(trifluoromethyl)naphthalen-2-yl)propan-1-ol] | > 5 mg/kg
C[C@](N)(CO)c1ccc2cc(OC3CCC4(CCCCC4)CC3)ccc2c1 [Example 133, (2R)-2-amino-2-(6-(spiro[5.5]undecan-3-yloxy)naphthalen-2-yl)propan-1-ol] | 0.5 to 5 mg/kg
C[C@](N)(CO)c1ccc2cc(Oc3cc(F)cc(F)c3)ccc2c1 [Example 186, (R)-2-Amino-2-(6-(3,5-difluorophenoxy)naphthalen-2-yl)propan-1-ol] | 0.5 to 5 mg/kg
CC(C)(C)[C@H]1CC[C@H](Oc2ccc3cc([C@@](C)(N)CO)ccc3c2Cl)CC1 [Example 236, (R)-2-amino-2-(6-(trans-4-tert-butylcyclohexyloxy)-5-chloronaphthalen-2-yl)propan-1-ol] | < 0.5 mg/kg
NC(CO)(CO)c1ccc2cc(Oc3cccc(OCCc4ccccc4)c3)ccc2c1 [Example 197, 2-Amino-2-(6-(3-phenethoxyphenoxy)naphthalen-2-yl)propane-1,3-diol] | < 0.5 mg/kg
C[C@](N)(CO)c1ccc2c(C(F)(F)F)c(OC3CCC4(CCCCC4)CC3)ccc2c1 [Example 139, (2R)-2-amino-2-(6-(spiro[5.5]undecan-3-yloxy)-5-(trifluoromethyl)naphthalen-2-yl)propan-1-ol] | < 0.5 mg/kg
CCOc1ccc(-c2c(O[C@H]3CC[C@H](C(C)(C)C)CC3)ccc3cc([C@@](C)(N)CO)ccc23)cc1 [Example 227, (R)-2-amino-2-(6-(trans-4-tert-butylcyclohexyloxy)-5-(4-ethoxyphenyl)naphthalen-2-yl)propan-1-ol] | 0.5 to 5 mg/kg
C[C@](N)(CO)c1ccc2c(C(F)(F)F)c(O[C@H]3CC[C@@H](C4CCCC4)CC3)ccc2c1 [Example 100, (R)-2-Amino-2-[6-(cis-4-cyclopentyl-cyclohexyloxy)-5-trifluoromethyl-naphthalen-2-yl]-propan-1-ol] | > 5 mg/kg
CCC(F)(F)[C@H]1CC[C@H](Oc2ccc3cc([C@@](C)(N)CO)ccc3c2C(F)(F)F)CC1 [Example 337, (R)-2-amino-2-(6-(trans-4-(1,1-difluoropropyl)cyclohexyloxy)-5-(trifluoromethyl)naphthalen-2-yl)propan-1-ol] | < 0.5 mg/kg
NC(CO)(CO)c1ccc2cc(Oc3ccc(OCc4ccccc4)cc3)ccc2c1 [Example 248, 2-amino-2-(6-(4-(benzyloxy)phenoxy)naphthalen-2-yl)propane-1,3-diol] | < 0.5 mg/kg
NC(CO)(CO)c1ccc2cc(Oc3cccc(OCC4CCCCC4)c3)ccc2c1 [Example 199, 2-Amino-2-(6-(3-(cyclohexylmethoxy)phenoxy)naphthalen-2-yl)propane-1,3-diol] | < 0.5 mg/kg
CC(C)(C)[C@H]1CC[C@H](Oc2ccc3cc(C4(N)COC4)ccc3c2)CC1 [Example 151, 3-(6-(trans-4-tert-Butylcyclohexyloxy)naphthalen-2-yl)oxetan-3-amine] | 0.5 to 5 mg/kg
CC(C)(C)[C@H]1CC[C@H](Oc2ccc3cc([C@]4(C)COC(=O)N4)ccc3c2C(F)(F)F)CC1 [Example 131, (R)-4-(6-(trans-4-tert-butylcyclohexyloxy)-5-(trifluoromethyl)naphthalen-2-yl)-4-methyloxazolidin-2-one] | < 0.5 mg/kg
C[C@](N)(CO)c1ccc2c(C(F)(F)F)c(O[C@H]3CC[C@H](C4CCCC4)CC3)ccc2c1 [Example 103, (R)-2-Amino-2-[6-(trans-4-cyclopentyl-cyclohexyloxy)-5-trifluoromethyl-naphthalen-2-yl]-propan-1-ol] | > 5 mg/kg
CC1(C)CCC(Oc2ccc3cc([C@@](C)(N)CO)ccc3c2)CC1 [Example 47, (R)-2-amino-2-(6-(4,4-dimethylcyclohexyloxy)naphthalen-2-yl)propan-1-ol] | > 5 mg/kg
CC(C)(C)[C@H]1CC[C@H](Oc2ccc3cc([C@@](C)(N)CO)ccc3c2-c2ccc(Cl)cc2)CC1 [Example 233, (R)-2-amino-2-(6-(trans-4-tert-butylcyclohexyloxy)-5-(4-chlorophenyl)naphthalen-2-yl)propan-1-ol] | > 5 mg/kg
CCC(F)(F)[C@H]1CC[C@@H](Oc2ccc3cc([C@@](C)(N)CO)ccc3c2)CC1 [Example 325, (R)-2-amino-2-(6-(cis-4-(1,1-difluoropropyl)cyclohexyloxy)naphthalen-2-yl)propan-1-ol] | > 5 mg/kg
CC(C)[C@H]1CC[C@@H](Oc2ccc3cc([C@@](C)(N)CO)ccc3c2C(F)(F)F)CC1 [Example 167, (R)-2-Amino-2-(6-(cis-4-isopropylcyclohexyloxy)-5-(trifluoromethyl)naphthalen-2-yl)propan-1-ol] | < 0.5 mg/kg
CC(N)(CCC(=O)O)c1ccc2c(C(F)(F)F)c(O[C@H]3CC[C@H](C(C)(C)C)CC3)ccc2c1 (stereo partly drawn) [Example 211, 4-amino-4-(6-(trans-4-tert-butylcyclohexyloxy)-5-(trifluoromethyl)naphthalen-2-yl) pentanoic acid] | 0.5 to 5 mg/kg
